{"source": "paper PMC2931804", "about": "(Clinical cancer research : an official journal of the …, 2010)", "key": {"[1]": {"assay": "FU plasma pharmacokinetics", "format": "in vivo, human"}, "[2]": {"conditions": "vorinostat with FOLFOX; cited from earlier work"}}}
{"smiles": "O=c1[nH]cc(F)c(=O)[nH]1", "note": "[FU, 5-fluorouracil]", "values": [{"measurement": "FU Cmax with vorinostat relative to without (times lower)", "setting": "[1]; 1,700 mg vorinostat once daily, cycle 2 vs cycle 1, statistically significant", "value": 0.82, "unit": "times"}, {"measurement": "Change in FU clearance with the addition of vorinostat", "setting": "[1]; once-daily or twice-daily MTD", "value": "did not observe any decrease"}, {"measurement": "FU clearance at higher vorinostat dose-levels", "setting": "[2]", "value": "lower FU clearance"}]}
